According to patent publication US11780832B2, “Lactivicin compounds, their preparation and use as antibacterial agents” (priority 2021, dated 2023):
≈ marks a conversion by molar mass, not a printed value.

What was measured:
Test in all cases: MIC, CLSI broth microdilution
Assay type in all cases: cell-based
[1] = system: Escherichia coli CTX-M-15; settings: CTXM15
Experimental: (§1) Gram-negative and Gram-positive bacterial strains used during the in vitro minimum inhibitory concentration (MIC) determination were obtained either from the American Type Culture Collection (ATCC) or from clinical specimens. All strains were characterized genotypically and the respective antibiotic resistance markers for each strain were identified.
(§2) Isolates were sub-cultured onto appropriate media and stocked in skim milk at −80° C. Following two subcultures from frozen stock, in vitro antimicrobial susceptibility testing was performed using the Clinical and Laboratory Standards Institute (CLSI) broth microdilution method. Briefly, fresh cultures were suspended in culture media to give a final stock inoculum size of 5×10^7 colony forming units per milliliter of broth (CFU/mL). […] 100 μL of the stock solutions were added to the first wells in a 96-well plate and were then diluted using a 2-fold dilution method to give a range of 32-0.025 μg/mL. 100 μL of the bacterial suspensions were then added to the 96-well plates to give a final working inoculum size of 5×10^5 CFU/mL. The final compound concentration range was 16-0.0125 μg/mL. […] MICs for comparator agents were determined using custom-designed, in-house prepared 96-well broth microdilution panels.

[2] = system: Klebsiella pneumoniae SHV-12; settings: SHV12, SHV-12, read-out: MIC
Experimental: as §1, §2

[3] = system: Escherichia coli Isogenic TEM-10
Experimental: as §1, §2

[4] = system: Acinetobacter baumannii ATCC 19606; settings: ATCC19606
Experimental: as §1, §2

[5] = system: Pseudomonas aeruginosa AmpC overexpressed
Experimental: as §1, §2

[6] = system: Escherichia coli pSMART_Ecloacae_AmpC
Experimental: as §1, §2

[7] = system: Klebsiella pneumoniae OXA-163, OXA-1_OXA-30, SHV-1, TEM-1
Experimental: as §1, §2

[8] = system: Klebsiella oxytoca KPC-2, TEM-1; settings: KPC-2, TEM-1, read-out: MIC
Experimental: as §1, §2

[9] = system: Escherichia coli ATCC 25922; settings: ATCC25922
Experimental: as §1, §2

[10] = system: Klebsiella pneumoniae KPC-2; settings: KPC2
Experimental: as §1, §2

[11] = system: Pseudomonas aeruginosa OprD negative
Experimental: as §1, §2

[12] = system: Escherichia coli Empty pSMART plasmid
Experimental: as §1, §2

[13] = system: Escherichia coli Isogenic TEM-26
Experimental: as §1, §2

[14] = system: Citrobacter freundii species complex OXA-181; settings: Citrobacter freundii species complex, OXA-181; read-out: MIC
Experimental: as §1, §2

Escherichia coli SHV-12 = settings: SHV12
Experimental: as §1, §2

[15] = system: Serratia marcescens AmpC overexpressed
Experimental: as §1, §2

[16] = system: Klebsiella pneumoniae KPC-3; settings: KPC3, KPC-3, read-out: MIC
Experimental: as §1, §2

[17] = system: Pseudomonas aeruginosa ATCC 27853; settings: ATCC27853
Experimental: as §1, §2

[18] = system: Escherichia coli pSMART_Cfreundii_AmpC
Experimental: as §1, §2

Escherichia coli CMY-2 = settings: CMY2
Experimental: as §1, §2

[19] = system: Serratia marcescens SME-2; settings: SME2
Experimental: as §1, §2

[20] = system: Enterobacter cloacae species complex NDM-1
Experimental: as §1, §2

[21] = system: Klebsiella aerogenes VIM-1, SHV-12
Experimental: as §1, §2

[22] = system: Klebsiella pneumoniae OXA-48, SHV-1
Experimental: as §1, §2

SMILES | MIC [1] | MIC [2] | MIC [3] | MIC [4] | MIC [5] | MIC [6] | MIC [7] | MIC [8] | MIC [9] | MIC [10] | MIC [11] | MIC [12] | MIC [13] | MIC [14] | MIC (Escherichia coli SHV-12) | MIC [15] | MIC [16] | MIC [17] | MIC [18] | MIC (Escherichia coli CMY-2) | also measured
Nc1nc(/C(=N/OC2(C(=O)O)COC2)C(=O)N[C@H]2CON(C3(C(=O)O)C[C@H](N4C(=O)c5cc(O)c(O)cc5C4=O)C(=O)O3)C2=O)cs1 (stereo partly drawn) [Cmpd 5, (4S)-2-[(4S)-4-{[(2Z)-2-(2-amino-1,3-thiazol-4-yl)-2-{[(3-carboxyoxetan-3-yl)oxy]imino}acetyl]amino}-3-oxo-1,2-oxazolidin-2-yl]-4-(5,6-dihydroxy-1,3-dioxo-1,3-dihydro-2H-isoindol-2-yl)-5-oxooxolane-2-carboxylic acid] | 2 µg/mL (≈ 2.96 µM) | 0.03 µg/mL (≈ 0.0443 µM) | 0.03 µg/mL (≈ 0.0443 µM) | 0.12 µg/mL (≈ 0.177 µM) | 1 µg/mL (≈ 1.48 µM) | 0.06 µg/mL (≈ 0.0887 µM) | 0.06 µg/mL (≈ 0.0887 µM) | ≤ 0.015 µg/mL | 0.25 µg/mL (≈ 0.37 µM) | 0.06 µg/mL (≈ 0.0887 µM) | 2 µg/mL (≈ 2.96 µM) | ≤ 0.015 µg/mL | 0.03 µg/mL (≈ 0.0443 µM) | 0.06 µg/mL (≈ 0.0887 µM) | 1 µg/mL (≈ 1.48 µM) | 0.25 µg/mL (≈ 0.37 µM) | 0.03 µg/mL (≈ 0.0443 µM) | 0.25 µg/mL (≈ 0.37 µM) | 0.25 µg/mL (≈ 0.37 µM) | 4 µg/mL (≈ 5.91 µM) | MIC [19]: 0.12 µg/mL (≈ 0.177 µM); MIC [20]: 0.25 µg/mL (≈ 0.37 µM); MIC [21]: 2 µg/mL (≈ 2.96 µM); MIC [22]: ≤ 0.015 µg/mL
Nc1nc(/C(=N/OC2(C(=O)O)CCC(F)(Cl)CC2)C(=O)N[C@H]2CON(C3(C(=O)O)C[C@H](N4C(=O)c5cc(O)c(O)cc5C4=O)C(=O)O3)C2=O)cs1 (stereo partly drawn) [Cmpd 11, (4S)-2-[(4S)-4-{[(2Z)-2-(2-amino-1,3-thiazol-4-yl)-2-{[(1-carboxy-4-chloro-4-fluorocyclohexyl)oxy]imino}acetyl]amino}-3-oxo-1,2-oxazolidin-2-yl]-4-(5,6-dihydroxy-1,3-dioxo-1,3-dihydro-2H-isoindol-2-yl)-5-oxooxolane-2-carboxylic acid] | 2 µg/mL (≈ 2.65 µM) | 0.03 µg/mL (≈ 0.0397 µM) | 0.06 µg/mL (≈ 0.0795 µM) | 0.25 µg/mL (≈ 0.331 µM) | 2 µg/mL (≈ 2.65 µM) | 0.06 µg/mL (≈ 0.0795 µM) | 0.12 µg/mL (≈ 0.159 µM) | ≤ 0.015 µg/mL | 0.12 µg/mL (≈ 0.159 µM) | 0.03 µg/mL (≈ 0.0397 µM) | 0.25 µg/mL (≈ 0.331 µM) | ≤ 0.015 µg/mL | 0.03 µg/mL (≈ 0.0397 µM) | 0.03 µg/mL (≈ 0.0397 µM) | 2 µg/mL (≈ 2.65 µM) | 0.06 µg/mL (≈ 0.0795 µM) | 0.06 µg/mL (≈ 0.0795 µM) | 0.25 µg/mL (≈ 0.331 µM) | 0.06 µg/mL (≈ 0.0795 µM) | 1 µg/mL (≈ 1.32 µM) | MIC [19]: 0.06 µg/mL (≈ 0.0795 µM); MIC [20]: 2 µg/mL (≈ 2.65 µM); MIC [21]: 0.12 µg/mL (≈ 0.159 µM); MIC [22]: ≤ 0.015 µg/mL
Nc1nc(/C(=N/OC2(C(=O)O)CCC2)C(=O)N[C@H]2CON(C3(C(=O)O)C[C@H](N4C(=O)c5cc(O)c(O)cc5C4=O)C(=O)O3)C2=O)cs1 (stereo partly drawn) [Cmpd 4, (4S)-2-[(4S)-4-{[(2Z)-2-(2-amino-1,3-thiazol-4-yl)-2-{[(1-carboxycyclobutyl)oxy]imino}acetyl]amino}-3-oxo-1,2-oxazolidin-2-yl]-4-(5,6-dihydroxy-1,3-dioxo-1,3-dihydro-2H-isoindol-2-yl)-5-oxooxolane-2-carboxylic acid] | 1 µg/mL (≈ 1.48 µM) | 0.03 µg/mL (≈ 0.0445 µM) | 0.03 µg/mL (≈ 0.0445 µM) | 0.12 µg/mL (≈ 0.178 µM) | 1 µg/mL (≈ 1.48 µM) | 0.06 µg/mL (≈ 0.0889 µM) | 0.06 µg/mL (≈ 0.0889 µM) | ≤ 0.015 µg/mL | 0.25 µg/mL (≈ 0.371 µM) | 0.06 µg/mL (≈ 0.0889 µM) | 1 µg/mL (≈ 1.48 µM) | ≤ 0.015 µg/mL | 0.06 µg/mL (≈ 0.0889 µM) | 0.06 µg/mL (≈ 0.0889 µM) | 1 µg/mL (≈ 1.48 µM) | 0.12 µg/mL (≈ 0.178 µM) | 0.03 µg/mL (≈ 0.0445 µM) | 0.25 µg/mL (≈ 0.371 µM) | 0.12 µg/mL (≈ 0.178 µM) | 2 µg/mL (≈ 2.96 µM) | MIC [19]: 0.06 µg/mL (≈ 0.0889 µM); MIC [20]: 0.25 µg/mL (≈ 0.371 µM); MIC [21]: 1 µg/mL (≈ 1.48 µM); MIC [22]: ≤ 0.015 µg/mL
